According to US20230346820A1, “METHODS AND COMPOSITIONS FOR THE TREATMENT OF SARS-COV-2” (priority 2020, published 2023):
Like-named read-outs stand apart in the source and are kept apart here.

How the values were obtained:
SARS-CoV-2 [1] = assay: microbe, parasite or virus in culture; conditions: Severe acute respiratory syndrome coronavirus 2, Calu-3, 48 h, read-out: Calu-3 CoV-2 EC50 [μM]
in vitro [2] = conditions: human
Protocol: To assess cell viability, 2 μL of 50% Cell-Titer Glo (Promega No G7573) diluted in water was added to the cells and luminescence measured on an EnVision Plate Reader (Perkin Elmer).
Data analysis. […] Primary in vitro screen and the host cell cytotoxicity counter screen data were uploaded to Genedata Screener, Version 16.0.3-Standard. […] For the uninfected host cell cytotoxicity counter screens, 40 μM puromycin (Sigma) was used as the positive (inhibitory) control in HeLa-ACE2, HepG2 and HEK293T cells, and 30 μM puromycin (Sigma) was used as the positive (inhibitory) control for Calu-3 cells. For dose response experiments compounds were tested in technical triplicates on different assay plates and dose curves were fitted with the four parameter Hill Equation. Technical replicate data were analyzed using median condensing. Geometric means and geometric standard deviations are reported for compound activities (EC50s and CC50s) obtained in multiple independent biological experiments. […] Geometric means were calculated by computing the logarithm (base 10) of all values, calculating the mean of these logarithms, and taking the antilog of that mean. Geometric standard deviations were computed by taking the standard deviation of the log-transformed individual values and taking the antilog of that standard deviation. The geometric standard deviation is a unitless ratio and reported as ×÷ instead of +/−.

in vitro [3] = conditions: human; remark: listed apart in the source
SARS-CoV-2 [4] = tested on: SARS-CoV-2
SARS-CoV-2 [5] = assay: microbe, parasite or virus in culture
SARS-CoV-2 [6] = tested on: SARS-CoV-2; remark: listed apart in the source
[7] = HeLa-ACE2 Uninfected Tox CC50 [μM], Table 4, aggregated data, Geomean, n = 3
[8] = Severe acute respiratory syndrome coronavirus 2, HeLa-ACE2, read-out: HeLa-ACE2 CoV-2 EC50 [μM], Table 4, aggregated data, Geomean, n = 3
[9] = Severe acute respiratory syndrome coronavirus 2, HeLa-ACE2, read-out: HeLa-ACE2 CoV-2 EC50 [μM]

| Compound | EC50 (SARS-CoV-2 [1]) | CC50 (in vitro [2]) | CC50 (in vitro [3]; [7]) | Calu3 SI CC50/CoV-2 EC50 (SARS-CoV-2 [4]; Table 4) | EC50 (SARS-CoV-2 [5]; [8]) | HeLa-ACE2 SI CC50/CoV-2 EC50 (SARS-CoV-2 [6]; Table 4) | CC50 at 48 h (in vitro [2]) | CC50 (in vitro [3]) | EC50 (SARS-CoV-2 [5]; [9]) | CC50 (in vitro [3]; HeLa-ACE2 Uninfected Tox CC50 [μM]) | Calu3 SI CC50/CoV-2 EC50 (SARS-CoV-2 [4]) | HeLa-ACE2 SI CC50/CoV-2 EC50 (SARS-CoV-2 [6]) |
| --- | --- | --- | --- | --- | --- | --- | --- | --- | --- | --- | --- | --- |
| CC(N)c1ccc(C(=O)Nc2ccncc2)cc1-c1ccc(F)cc1 (stereo not shown) [AMA-0076] | 3.87 µM | > 29.9 µM | 35.8 µM | >16 | > 9.59 µM | – | – | – | – | – | – | – |
| O=c1[nH]c(=O)n([C@@H]2O[C@H](CO)[C@@H](O)[C@H]2O)cc1F [Analog of OGT-719] | 1.17 µM | 8.73 µM | 0.109 µM | 7.44 | 4.02 µM | 0.03 | – | – | – | – | – | – |
| CCCCCCC1C(=O)O[C@H](C)[C@H](NC(=O)c2cccc(NC=O)c2O)C(=O)O[C@@H](C)[C@@H]1OC(=O)CC(C)C (stereo partly shown) [Antimycin A] | 0.028 µM | 0.608 µM | > 39.8 µM | 22.00 | > 9.59 µM | – | – | – | – | – | – | – |
| COC(=O)[C@@]12OC[C@]34[C@H]([C@@H](O)[C@@H]1O)[C@@]1(C)CC(=O)C(O)=C(C)[C@@H]1C[C@H]3OC(=O)[C@H](OC(=O)/C=C(\C)C(C)C)[C@@H]24 [Bruceantin] | 0.019 µM | 0.973 µM | 0.117 µM | 50.22 | 0.006 µM | 20.18 | – | – | – | – | – | – |
| COC1CC(OC2CCC3(C=O)[C@H]4CCC5(C)C(C6=CC(=O)OC6)CCC5(O)[C@@H]4CCC3(O)C2)OC(C)C1O (stereo partly shown) [CYMARINE] | 0.135 µM | 5.87 µM | 0.287 µM | 43.53 | 0.237 µM | 1.21 | – | – | – | – | – | – |
| CC[C@H]1CN2CCc3cc(OC)c(OC)cc3[C@@H]2C[C@@H]1C[C@H]1NCCc2cc(O)c(OC)cc21 [Cephaeline] | 0.142 µM | – | – | 34.84 | – | 12.66 | 4.96 µM | 0.212 µM | 0.017 µM | – | – | – |
| C[C@@H]1C[C@@H]([C@H](O)CC2CC(=O)NC(=O)C2)C(=O)[C@@H](C)C1 [Cycloheximide] | 0.195 µM | – | – | 12.50 | – | 2.32 | 2.44 µM | 1.47 µM | 0.634 µM | – | – | – |
| CNC(=O)n1ccc2cc(Oc3ccnc(NC(=O)c4ccc(C5CCN(CCO)CC5)cc4)c3)c(OCCOC)cc21 [E-7090] | 0.753 µM | 15 µM | 21.2 µM | 19.88 | 2.65 µM | 8.01 | – | – | – | – | – | – |
| CC[C@H]1CN2CCc3cc(OC)c(OC)cc3[C@@H]2C[C@@H]1C[C@H]1NCCc2cc(OC)c(OC)cc21 [Emetine] | 0.444 µM | 8.87 µM | 0.34 µM | 19.97 | 0.06 µM | 5.66 | – | – | – | – | – | – |
| CCCCCCCC/C=C/CCCCCCCC(=O)OC[C@H]1O[C@@H](n2ccc(N)nc2=O)C(F)(F)[C@@H]1O [Gemcitabine elaidate] | 0.324 µM | > 29.9 µM | 6.01 µM | >92 | > 9.59 µM | – | – | – | – | – | – | – |
| CC(C)(O)c1ccccc1-c1ccc2[nH]c(/C=C/c3ccc(C(F)(F)F)cc3)nc2c1 [Mavatrep] | 2.66 µM | 14.6 µM | 22.5 µM | 5.50 | > 9.59 µM | – | – | – | – | – | – | – |
| Sc1ncnc2nc[nH]c12 [Mercaptopurine] | 0.197 µM | 1.37 µM | 19.6 µM | 6.95 | 3.57 µM | 5.51 | – | – | – | – | – | – |
| CO[C@H]1[C@@H](O)C[C@H](O[C@H]2[C@@H](O)C[C@H](O[C@H]3[C@@H](O)C[C@H](O[C@H]4CC[C@@]5(C)[C@H](CC[C@@H]6[C@@H]5C[C@@H](O)[C@]5(C)[C@@H](C7=CC(=O)OC7)CC[C@]65O)C4)O[C@@H]3C)O[C@@H]2C)O[C@@H]1C [Metildigoxin] | 0.399 µM | – | – | 6.22 | – | 0.56 | 1.24 µM | 0.159 µM | 0.284 µM | – | – | – |
| CC[C@@H]1/C=C/C=C/C[C@H](C)[C@@H](O)[C@](C)(O)C(=O)[C@H](C)[C@@H](O)[C@H](C)C(=O)[C@H](C)[C@@H](O)[C@H](C)/C=C/C(=O)O[C@H]2[C@@H](C)[C@@H](CC1)O[C@@]1(CC[C@@H](C)[C@@H](C[C@H](C)O)O1)[C@@H]2C [OLIGOMYCINA] | 0.007 µM | > 29.9 µM | 36 µM | >4000 | > 9.59 µM | – | – | – | – | – | – | – |
| CC1OC(O[C@H]2CC[C@@]3(C=O)[C@H](CC[C@@H]4[C@@H]3CC[C@]3(C)[C@@H](C5=CC(=O)OC5)CC[C@]43O)C2)C(O)C(O)C1O (stereo partly shown) [Peruvoside (analog)] | 0.251 µM | 1.41 µM | 0.345 µM | 5.61 | 0.246 µM | 1.40 | – | – | – | – | – | – |
| CCCCCCCCCCCCCC(=O)O[C@@H]1[C@@H](C)[C@@]2(O)[C@@H](C=C(CO)C[C@]3(O)C(=O)C(C)=C[C@@H]23)[C@@H]2C(C)(C)[C@]12OC(C)=O [Phorbol 12-myristate 13-acetate] | 0.016 µM | 22.5 µM | 0.201 µM | 1384.37 | 0.07 µM | 2.89 | – | – | – | – | – | – |
| C=C(C)[C@]12C[C@@H](C)[C@@]34O[C@](Cc5ccccc5)(O[C@@H]1[C@@H]3C=C(COC(=O)Cc1ccc(O)c(OC)c1)C[C@]1(O)C(=O)C(C)=C[C@@H]41)O2 [Resiniferatoxin] | 0.903 µM | – | – | 19.13 | – | 5.53 | 17.3 µM | 7.17 µM | 1.3 µM | – | – | – |
| O=c1[nH]ccc2cc(OC3CCNCC3)ccc12 [SAR-407899] | > 3.85 µM | > 29.9 µM | > 38.7 µM | >7.77 | – | 4.03 | – | – | – | – | – | – |
| N=C(N)c1ccc2cc(OC(=O)c3ccc(CNC(=O)CCCC(=O)O)o3)ccc2c1 [TO-195] | 0.657 µM | > 29.9 µM | > 39.8 µM | >45 | > 9.59 µM | >6 | – | – | – | – | – | – |
| Nc1ncnc2c1ccn2[C@@H]1O[C@H](CO)[C@@H](O)[C@H]1O [TUBERCIDIN] | 0.111 µM | 1.07 µM | 0.557 µM | 9.68 | 0.183 µM | 3.04 | – | – | – | – | – | – |
| O=C(c1ccccc1)c1cccc(NC(=O)c2ccn3c2CSC3c2cccnc2)c1 (stereo not shown) [TULOPAFANT] | 2.92 µM | 14.6 µM | 36.6 µM | 5.01 | > 9.59 µM | – | – | – | – | – | – | – |
| CC(=O)O[C@H]1C[C@H](O[C@H]2[C@@H](O)C[C@H](O[C@H]3[C@@H](O)C[C@H](O[C@H]4CCC5(C)[C@H](CC[C@@H]6[C@@H]5CCC5(C)[C@@H](C7=CC(=O)OC7)[C@@H](O)CC65O)C4)O[C@@H]3C)O[C@@H]2C)O[C@H](C)[C@H]1O[C@@H]1O[C@H](CO)[C@@H](O)[C@H](O)[C@H]1O (stereo partly shown) [[…]] | 0.688 µM | 3.37 µM | 1.75 µM | 4.90 | 0.803 µM | 2.175 | – | – | – | – | – | – |
| C#C[C@]1(O)CC[C@H]2[C@@H]3CCc4cc(OS(=O)(=O)C(C)C)ccc4[C@H]3CC[C@@]21C [ethinyl estradiol sulfonate] | 1.23 µM | 6.86 µM | 20.4 µM | 5.59 | > 9.59 µM | – | – | – | – | – | – | – |
| COc1ccc2c(c1)c(CC(=O)NO)c(C)n2C(=O)c1ccc(Cl)cc1 [oxametacin] | 3.56 µM | 17.7 µM | – | – | – | – | – | – | 9.14 µM | 5.87 µM | 4.98 | 0.64 |
